In patent US20230129485A1, “SYSTEM AND METHOD FOR DETERMINING MATERIAL PROPERTIES OF MOLECULAR SYSTEMS FROM AN AB-INITIO PARAMETERIZED FORCE-FIELD” (InterX, Inc., priority 2021, published 2023):
Read-outs that look alike come from different tables or passages of the source.

Legend:
[1] = implicit solvent model, values received; cited from earlier work
[2] = Free energy of hydration by Free Energy Machine Learning Model (FML); conditions: absolute error vs Exp (hydration)
Excerpt: Machine learning models can be used for free energy determination.

[3] = Free energy of hydration by COSMO implicit solvent model (MolPro ver. 2012); conditions: absolute error vs Exp (hydration)
Method in brief: (§1)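 Hydration energies come from continuum solvent models. Those for COSMO were computed with MolPro. SMD and PCM results were received, and the SMD, PCM and COSMO-RS sets each cover just the molecules in common with the QM-parameterized force-field calculations.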

[4] = implicit solvent model, values received; cited from earlier work; remark: listed apart in the source
[5] = Free energy of hydration by Polarizable Continuum Model (PCM); conditions: absolute error vs Exp (hydration)
Method in brief: as §1

[6] = experimental, cited from earlier work; for Exp (hydration): Table 5
[7] = Free energy of hydration by COSMO-RS
Method in brief: as §1

[8] = Free energy of hydration predicted with the QM-parameterized force field model (ARROW FF), classical MD and PIMD simulation in a water box; conditions: for Arrow PIMD8 Error: absolute error vs Exp (hydration); for Arrow error: Table 5, error of Arrow PIMD8 hydration free energy vs experiment
Method in brief: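 Solute decoupled from solvent in a 32×32×32 Å3 water box (PME, 9 Å cutoffs), electrostatics, exchange-repulsion and dispersion switched off together over 15 lambda points with soft-coring. Steepest-descent minimization, 50 ps equilibration, 1 ns NPT production at 1 atm; classical and path-integral MD. Free energy from BAR and TI.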

[9] = Free energy of hydration by Solvation Model Dielectric (SMD) implicit solvent model; conditions: absolute error vs Exp (hydration)
Method in brief: as §1

[10] = Free energy of solvation in cyclohexane predicted with the QM-parameterized force field model (ARROW FF), MD and PIMD; conditions: Table 4; for CHEX Arrow MD Error: error of MD cyclohexane solvation free energy vs experiment; for CHEX Arrow PIMD4 Error: error of PIMD4 cyclohexane solvation free energy vs experiment
Method in brief: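 Solute–cyclohexane interactions decoupled over 15 λ points with soft-core scaling, in MD and path-integral simulations under NPT at 1 atm using PME electrostatics and 9 Å cutoffs. Each window had 50 ps equilibration and 1 ns production; free energies from BAR and TI.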

[11] = CHEX/H2O partition coefficient (log D) predicted with the QM-parameterized force field model (ARROW FF)
Method in brief: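 Cyclohexane/water partition coefficients were predicted by molecular simulation with a QM-parameterized force field, with bonded force constants and equilibrium values fitted to MP2/aug-cc-pVTZ energies. Solutes carried neutral functional groups, and results from four independent groups were averaged.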

[12] = Free energy of hydration predicted by General Amber Force Field (GAFF), from literature; conditions: Table 5; error of GAFF hydration free energy vs experiment
[13] = Table 5; free energy of hydration, AMOEBA prediction taken from literature; cited from earlier work
[14] = Free energy of hydration predicted by polarizable AMOEBA force field, from literature; conditions: Table 5; error of AMOEBA hydration free energy vs experiment
[15] = CHEX/H2O partition coefficient, experimental, cited from earlier work; for Exp (log D): Table 3; for logD Exp (logD): Table 4
[16] = experimental, cited from earlier work
[17] = Table 5; free energy of hydration, GAFF prediction taken from literature; cited from earlier work
[18] = Table 3, free energy of hydration
[19] = Table 3, absolute error of MD hydration free energy vs experiment
[20] = Table 3, absolute error of PIMD8 hydration free energy vs experiment
[21] = Table 4, error of MD logD vs experiment
[22] = Table 4, error of PIMD logD vs experiment
[23] = Table 4, neutral amino-acid analogues
[24] = Table 4, error of MD hydration free energy vs experiment
[25] = Table 4, error of PIMD8 hydration free energy vs experiment
[26] = Table 3, free energy of solvation in cyclohexane
[27] = Table 4, solvation free energy in cyclohexane

| Compound | PCM free energy of hydration [1] [kcal/mol] | FML error [2] [kcal/mol] | COSMO/Molpro Error [3] [kcal/mol] | SMD free energy of hydration [4] [kcal/mol] | PCM Error [5] [kcal/mol] | water Exp (hydration) [6, 18] [kcal/mol] | COSMO-RS error [7] [kcal/mol] | water Arrow MD Error [8, 19] [kcal/mol] | water Arrow PIMD8 Error [8, 20] [kcal/mol] | Arrow PIMD8 Error [8] [kcal/mol] | SMD Error [9] [kcal/mol] | CHEX Arrow MD Error [10] [kcal/mol] | CHEX Arrow PIMD4 Error [10] [kcal/mol] | GAFF error [12] [kcal/mol] | AMOEBA [13] [kcal/mol] | AMOEBA error [14] [kcal/mol] | water Arrow MD Error [8, 24] [kcal/mol] | Arrow error [8] [kcal/mol] | CHEX Exp (solvation) [16, 27] [kcal/mol] | GAFF [17] [kcal/mol] | further results |
| --- | --- | --- | --- | --- | --- | --- | --- | --- | --- | --- | --- | --- | --- | --- | --- | --- | --- | --- | --- | --- | --- |
| CCCCCO [1-Pentanol] | -3.30 | 0.30 | 2.21 | -4.00 | 1.17 | -4.47 | 0.11 | 1.18 | 0.05 | 0.05 | 0.47 | – | – | – | – | – | – | – | – | – | – |
| CCC(C)O (stereo not shown) [2-Butanol] | – | 0.61 | 1.11 | – | – | -4.58 | 0.77 | 1.41 | 0.08 | 0.08 | – | – | – | – | – | – | – | – | – | – | – |
| CCCC(C)O (stereo not shown) [2-Pentanol] | – | 0.40 | 1.38 | – | – | -4.39 | – | 1.68 | 0.08 | 0.08 | – | – | – | – | – | – | – | – | – | – | – |
| CCC(O)CC [3-Pentanol] | – | 0.58 | 1.01 | – | – | -4.35 | – | 1.36 | 0.15 | 0.15 | – | – | – | – | – | – | – | – | – | – | – |
| CCCC [Butane] | -0.20 | – | 2.65 | 2.00 | 2.30 | 2.10 | 0.03 | 0.70 | 0.04 | 0.04 | 0.10 | 0.46 | 0.20 | 0.44 | 1.11 | 0.99 | 0.70 | 0.04 | -2.72 | 2.54 | log D Arrow MD Error ([11]; Table 3, absolute error of MD log D vs experiment): 0.18; log D Arrow PIMD Error ([11]; Table 3, absolute error of PIMD log D vs experiment): 0.17; logD Arrow MD Error [11, 21]: 0.18; logD Arrow PIMD Error [11, 22]: 0.17; water Exp (hydration) [6, 23]: 2.10 kcal/mol; Exp (hydration) ([6]; free energy of hydration): 2.10 kcal/mol; water Arrow PIMD8 Error [8, 25]: 0.04 kcal/mol; Exp (log D) [15]: 3.54; logD Exp (logD) [15]: 3.54; CHEX Exp (solvation) [16, 26]: -2.72 kcal/mol |
| C1CCCC1 [Cyctopentane] | -0.20 | 0.32 | – | 1.30 | 1.40 | – | 0.17 | – | – | 0.12 | 0.10 | – | – | – | – | – | – | – | – | – | – |
| CCSC [EthylMethylSulfide] | – | – | 2.70 | – | – | -1.5 | – | 0.47 | 0.11 | 0.11 | – | 0.83 | 0.51 | 1.84 | -1.98 | 0.48 | 0.47 | 0.11 | -3.78 | 0.34 | log D Arrow MD Error [11]: 0.27; log D Arrow PIMD Error [11]: 0.29; logD Arrow MD Error [11]: 0.27; logD Arrow PIMD Error [11]: 0.29; water Exp (hydration) [6, 23]: -1.5 kcal/mol; Exp (hydration) ([6]; free energy of hydration): -1.50 kcal/mol; water Arrow PIMD8 Error [8, 25]: 0.11 kcal/mol; Exp (log D) [15]: 1.67; logD Exp (logD) [15]: 1.67; CHEX Exp (solvation) [16, 26]: -3.78 kcal/mol |
| CS [MethaneThiol] | -2.10 | – | 2.71 | -0.80 | 0.88 | -1.219 | – | 0.79 | 0.43 | 0.43 | 0.42 | 0.39 | 0.30 | 0.41 | -0.26 | 0.98 | 0.79 | 0.43 | -2.46 | -0.83 | logD Arrow MD Error [11, 21]: 0.29; logD Arrow PIMD Error [11, 22]: 0.09; water Exp (hydration) [6, 23]: -1.219 kcal/mol; Exp (hydration) ([6]; free energy of hydration): -1.24 kcal/mol; Exp (hydration) free energy of hydration [6]: -1.22 kcal/mol; logD Exp (logD) [15]: 0.91 |
| CO [Methanol] | – | – | 1.37 | – | 1.91 | – | 0.18 | 0.28 | 0.35 | 0.35 | 0.91 | 0.42 | 0.24 | 0.74 | -4.79 | 0.32 | 0.28 | 0.33 | -1.29 | -4.37 | log D Arrow MD Error [11]: 0.10; log D Arrow PIMD Error [11]: 0.43; logD Arrow MD Error [11]: 0.10; logD Arrow PIMD Error [11]: 0.43; water Arrow PIMD8 Error [8, 25]: 0.35 kcal/mol; Exp (log D) [15]: −2.80; logD Exp (logD) [15]: −2.80; CHEX Exp (solvation) [16, 26]: -1.29 kcal/mol |
| Cc1ccccc1 [Toluene] | -1.60 | – | 2.41 | -0.30 | 0.71 | -0.89 | 0.12 | 0.83 | 0.10 | 0.10 | 0.59 | 0.94 | 0.62 | 0.18 | -1.53 | 0.64 | 0.83 | 0.10 | -4.90 | -0.71 | water Exp (hydration) [6, 23]: -0.89 kcal/mol; Exp (hydration) ([6]; free energy of hydration): -0.89 kcal/mol; water Arrow PIMD8 Error [8, 25]: 0.10 kcal/mol; CHEX Exp (solvation) [16, 26]: -4.90 kcal/mol |
| CC=O [acetaldehyde] | – | 0.03 | 3.97 | – | 0.20 | – | 0.18 | 0.18 | 0.27 | 0.27 | 0.30 | – | – | – | – | – | – | – | – | – | – |
